Assays:
bovine NP cells = test: Real-time qPCR of LPS- or IL-1-induced catabolic genes and TLR-2 in bovine NP cell monolayers; assay type: cell-based
Procedure: (§1) Human spine segments (T11/12 to S1) were received within 24 hours of death of donors from the Gift of Hope Organ and Tissue Donor Network (Elmhurst, Ill.), after obtaining consent from the families. Each of the lumbar segments underwent magnetic resonance imaging (MRI). Intact disc specimens (Thompsons grade 2 or 3) were removed and processed aseptically (Thompson et al., 1990; Kim et al., 2009). After dissection of the NP portion of discs either from human or bovine tails, NP cells were released by enzymatic digestion in Dulbecco's modified Eagle's medium [(DMEM)/Ham's F-12 (1:1)] culture medium with sequential treatments of 0.2% pronase and 0.025% collagenase P, as previously described (Kim et al.; Loeser et al., 2003). Alginate beads and monolayers were prepared for long-term (21 days) and short-term studies (1-2 days) as previously described by our group (Kim et al.; Im et al., 2003; Im et al., 2007b; Im et al., 2008; Li et al., 2008a).
(§2) For short-term monolayer cultures, isolated NP cells from either bovine tails or human spine discs were counted and plated onto 12-well plates at 8×10^5 cells/cm^2 as previously described (Im et al., 2003; Im et al., 2007b). Cells were stimulated with either IL-1 (10 ng/mL, NCI) or LPS (10 μg/mL, Sigma-Aldrich, St. Louis, Mont.) in the presence or absence of MyD88 peptide inhibitor (MyD88i; IMGENEX, San Diego, Calif.) at the concentration of 100 μM, in 1 mL per well of serum-free medium for 24 hours at 37° C. under 5% CO2. Supernatants were collected 24 hours after the initiation of each treatment and subjected to western blotting analyses for secreted matrix-degrading enzyme production. Cells were harvested and prepared for either cell lysates or total RNA extraction followed by real-time qPCR analyses, as previously described (Li et al., 2008b). 18s rRNA was used for normalization.
(§3) Total RNA was isolated from the cells using Trizol reagent (Invitrogen, Carlsbad, Calif.) following the instructions provided by the manufacturer. Reverse transcription was carried out with 1 μg total RNA using the ThermoScript™ RT-PCR system (Invitrogen, Carlsbad, Calif.) for first strand cDNA synthesis.
(§4) For real-time qPCR, cDNA was amplified using MyiQ Real-Time qPCR Detection System (Bio-Rad Hercules, Calif.). The synthesized cDNA was subjected to real-time qPCR utilizing the Bio-Rad iQTM SYBR Green supermix (Bio-Rad Hercules, Calif.). A threshold cycle (Ct value) was obtained from each amplification curve using iQ5 Optical System Software provided by the manufacturer (Bio-Rad Hercules, CA). Relative mRNA expression was determined using the ^ΔΔCT and calculated as follows: ^ΔΔCT=^ΔCT (gene of interest)−^ΔCT (endogenous control). Gene quantification was conducted for entire, individual treatment groups and expressed in terms of fold change from untreated control levels. Expression of 18s rRNA was used as the internal control. The deviations in samples represent 3 different donors in 3 separate experiments.
Therefore, NP cells were treated with MyD88i (100 μM), LPS or IL-1, individually, or combinations of LPS and MyD88i or IL-1 and MyD88i for 24 hours. Resulting cellular responses were then analyzed for alterations in gene expression and/or secreted protein levels. Our data reveal the significant upregulation of collagenase (MMP-13) and aggrecanases (ADAMTS-4, ADAMTS-5) after stimulation with either LPS or IL-1 compared to control (untreated) in bovine NP cells (FIGS. 1A˜C).

mouse lumbar spine discs = test: Ex vivo intradiscal injection organ culture model, Safranin O-fast green histology for PG loss; conditions: intradiscal injection 150 μM per disc, IL-1 100 ng/mL, 6 days organ culture
Procedure: Lumbar spine segments from deceased mice were dissected under sterile conditions within 12 hrs after sacrifice at the Rush University animal facility for ex vivo organ culture, as previously described (Chiba et al., 1998). The requirement for the pre-treatment of MyD88 has been previously described (Ahmad et al., 2007). Therefore, intradiscal pre-injection of MyD88i ([…]) en bloc was performed using a 30-gauge needle (30 G, 1.50 μL volume). Injected discs were then separated and incubated in DMEM/Ham's F-12 medium supplemented with 1% mini-ITS. After 24 hrs, the MyD88i pre-injected discs were challenged with either IL-1 (100 ng/mL) or LPS (10 μg/mL) and further incubated for 6 days. Harvested discs were fixed in 4% paraformaldehyde and then decalcified in EDTA, which was changed every 5 days. The decalcified discs were paraffin embedded. Serial disc sections of exactly 5-μm thickness were obtained to prepare slides. Safranin O-fast green staining was performed to assess general morphology and the loss of PG in disc ground substance.
Harvested discs were fixed in 4% paraformaldehyde and decalcified in EDTA, which was changed every 5 days. The decalcified discs were paraffin embedded. Serial disc sections of exactly 5-μm thickness were obtained to prepare slides. […]

human NP cells [1] = test: Real-time qPCR and western blotting of LPS- or IL-1-induced MMP-13, MMP-1, ADAMTS-4 and iNOS in human NP cell monolayers; assay type: cell-based; conditions: co-treatment MyD88i 100 μM, 24 hr
Procedure: as §1, §2, §3, §4
Cell and tissue lysates were prepared using modified RIPA buffer, as previously described (Li et al., 2008a; Li et al., 2008c). The total protein concentrations of cell lysates were determined by a bicinchoninic acid protein assay (Pierce, Rockford, Ill., USA). An equal amount of protein was resolved by 10% SDS-polyacrylamide gels (SDS-PAGE) and transferred to a nitrocellulose membrane for immunoblot analyses, as described previously (Im et al., 2007b). MMP-13 and MMP-1 antibodies were provided by courtesy of Dr. Gillian Murphy (Cambridge University, UK) Immunoreactivity was visualized using the ECL system (Amersham Biosciences, Piscataway, N.J., USA) and the Signal Visual Enhancer system (Pierce), which magnifies the signal.

human NP cells [2] = test: Gelatin zymography of conditioned media from LPS- or IL-1-stimulated human NP cells; assay type: cell-based; conditions: MyD88i 100 μM, 24 hr, p<0.01
Procedure: as §2, with “Cells were harvested and prepared for either cell lysates or total RNA extraction followed by real-time qPCR analyses, as previously described (Li et al., 2008b). 18s rRNA was used for normalization.” left out
Gelatin zymography was then performed as previously described (Gupta et al., 2007). […] After development, gel images were captured and the clear bands were analyzed using “ImageJ” image analysis software (www.imagej.nih.gov), and were expressed in arbitrary optical density units. […]
Because MyD88i effectively suppresses expression and/or production of multiple cartilage degrading enzymes, TLR-2 and stress-associated genes after stimulation with either LPS or IL-1 (FIGS. 1˜4), the role of MyD88i in antagonizing catalytic enzyme activity was further analyzed by performing reverse zymography (FIG. 5). […]

[3] = MyD88i 100 μM, IL-1 10 ng/mL, 24 hr, qPCR, p<0.05
[4] = MyD88i 100 μM, LPS 10 μg/mL, 24 hr, qPCR, p<0.01

Sequence: DRQIKIWFQNRRMKWKKRDVLPGT [MyD88i]
- IL-1-induced upregulation of catabolic gene expression (MMP-13, ADAMTS-4, ADAMTS-5) (bovine NP cells; [3]): significantly suppresses
- IL-1-stimulated TLR-2 levels (bovine NP cells; [3]): significant decrease
- LPS-induced upregulation of catabolic gene expression (MMP-13, ADAMTS-4, ADAMTS-5) (bovine NP cells; [4]): significantly suppresses
- LPS-stimulated TLR-2 levels (bovine NP cells; [4]): significant decrease
- minimal dose demonstrating maximal effects (bovine NP cells; initial experiments, monolayer cultures, different concentrations of MyD88i): 100 µM
- IL-1-induced PG loss in disc organ culture (mouse lumbar spine discs): significantly attenuates
- IL-1-induced collagenases MMP-13 and MMP-1, mRNA and protein levels (human NP cells [1]; IL-1 10 ng/mL, p<0.05): significant decreases
- induction of ADAMTS-4 expression by IL-1 (human NP cells [1]; IL-1 10 ng/mL, qPCR, p<0.05): significantly reduced
- IL-1-induced iNOS gene levels (human NP cells [1]; IL-1 10 ng/mL, qPCR, p<0.05 vs IL-1 alone): significant suppression
- LPS-induced collagenases MMP-13 and MMP-1, mRNA and protein levels (human NP cells [1]; LPS 10 μg/mL, p<0.01): significant decreases
- induction of ADAMTS-4 expression by LPS (human NP cells [1]; LPS 10 μg/mL, qPCR, p<0.01): significantly reduced
- LPS-induced iNOS gene levels (human NP cells [1]; LPS 10 μg/mL, qPCR, p<0.01 vs LPS alone): significant suppression
- IL-1-induced catalytic enzyme activity (gelatin zymography, densitometry) (human NP cells [2]; IL-1 10 ng/mL): markedly suppressed
- LPS-induced catalytic enzyme activity (gelatin zymography, densitometry) (human NP cells [2]; LPS 10 μg/mL): markedly suppressed

From patent US20130297023A1, “Methods and Devices For Treating Intervertebral Disc Disease” (priority 2012, published 2013)
